Experiments:
Format in all cases: in vivo
Echinochloa crus-galli [1] = assay: Post-emergence herbicidal action, ECHCG; set-up: key: % herbicidal action vs untreated; 100 = plants died, 0 = like control; conditions: post-emergence
Protocol: (§1) [table] 2. Post-Emergence Herbicidal Action Against Harmful Plants Seeds of monocotyledonous and dicotyledonous weed and crop plants are laid out in sandy loam soil in wood-fiber pots, covered with soil and cultivated in a greenhouse under good growth conditions. 2 to 3 weeks after sowing, the test plants are treated at the one-leaf stage. The compounds of the invention, formulated in the form of wettable powders (WP) or as emulsion concentrates (EC), are then sprayed onto the green parts of the plants in the form of an aqueous suspension or emulsion at a water application rate equating to 600 to 800 l/ha, with addition of 0.2% wetting agent. After the test plants have been left to stand in the greenhouse under optimal growth conditions for about 3 weeks, the action of the preparations is assessed visually in comparison to untreated controls (herbicidal action in percent (%): 100% activity=the plants have died, 0% activity=like control plants). […] The tables below illustrate, in an exemplary manner, the post-emergence herbicidal action of the compounds according to the invention, the herbicidal activity being stated in percent. In the experiments that follow, herbicidal action of numerous inventive compounds and the known compounds that are structurally closest from D1 (WO 2012/028579 A1) and D2 (WO 2018/202535 A1) were compared under the above-specified conditions by the pre-emergence and post-emergence method. The example numbers given in the tables relate to the compounds disclosed in the respective documents. In addition to the compounds disclosed in D1 and D2, the following compounds V-1 to V-14 that are encompassed by D1 or D2 but are not compounds specified therein were used in the comparative experiments: • V-1: 2-(methylsulfanyl)-3-(methylsulfinyl)-N-(1-methyl-1H-tetrazol-5-yl)-4-(trifluoromethyl)benzamide • V-2: 2-(methylsulfanyl)-3-(methylsulfonyl)-N-(1-methyl-1H-tetrazol-5-yl)-4-(trifluoromethyl)benzamide • V-3: 2,3-bis(ethylsulfanyl)-N-(1-methyl-1H-tetrazol-5-yl)-4-(trifluoromethyl)benzamide • V-4: 2-chloro-3-(ethylsulfanyl)-N-(1-methyl-1H-tetrazol-5-yl)-4-(trifluoromethyl)benzamide • V-5: 2-chloro-4-iodo-3-(methylsulfanyl)-N-(1-methyl-1H-tetrazol-5-yl)benzamide • V-6: 2-chloro-4-iodo-3-(methylsulfinyl)-N-(1-methyl-1H-tetrazol-5-yl)benzamide • V-7: 2-chloro-4-iodo-3-(methylsulfonyl)-N-(1-methyl-1H-tetrazol-5-yl)benzamide • V-8: 2-bromo-3-(methylsulfanyl)-N-(1-methyl-1H-tetrazol-5-yl)-4-(trifluoromethyl)benzamide • V-9: 2-bromo-3-(methylsulfinyl)-N-(1-methyl-1H-tetrazol-5-yl)-4-(trifluoromethyl)benzamide • V-10: 2-bromo-3-(methylsulfonyl)-N-(1-methyl-1H-tetrazol-5-yl)-4-(trifluoromethyl)benzamide • V-11: 2-bromo-3-(ethylsulfanyl)-N-(1-methyl-1H-tetrazol-5-yl)-4-(trifluoromethyl)benzamide • V-12: 2-bromo-3-(ethylsulfinyl)-N-(1-methyl-1H-tetrazol-5-yl)-4-(trifluoromethyl)benzamide • V-13: 2-bromo-3-(ethylsulfonyl)-N-(1-methyl-1-1H-tetrazol-5-yl)-4-(trifluoromethyl)benzamide • V-14: 2-cyclopropyl-3-(ethylsulfanyl)-N-(1-methyl-1H-tetrazol-5-yl)-4-(trifluoromethyl)benzamide Herbicidal Pre-Emergence Action: […]

Stellaria media [2] = assay: Post-emergence herbicidal action, STEME; set-up: key: % herbicidal action vs untreated; 100 = plants died, 0 = like control; conditions: post-emergence
Protocol: as §1

Amaranthus retroflexus [3] = assay: Post-emergence herbicidal action, AMARE; set-up: key: % herbicidal action vs untreated; 100 = plants died, 0 = like control; conditions: post-emergence
Protocol: as §1

Amaranthus retroflexus [4] = assay: Pre-emergence herbicidal action, AMARE; set-up: key to Herbicidal action against AMARE: % activity: 100 = plants have died, 0 = like control plants; conditions: for herbicidal action AMARE: dosage 320 g/ha
Description: (§2) 1. Pre-Emergence Herbicidal Action Against Harmful Plants Seeds of monocotyledonous and dicotyledonous weed plants and crop plants are laid out in sandy loam soil in wood-fiber pots and covered with soil. The compounds of the invention, formulated in the form of wettable powders (WP) or as emulsion concentrates (EC), are then applied to the surface of the covering soil in the form of an aqueous suspension or emulsion at a water application rate equating to 600 to 800 l/ha, with addition of 0.2% wetting agent. After the treatment, the pots are placed in a greenhouse and kept under good growth conditions for the trial plants. The damage to the test plants is scored visually after a test period of 3 weeks by comparison with untreated controls (herbicidal activity in percent (%): 100% activity=the plants have died, 0% activity=like control plants). […] The tables below illustrate, in an exemplary manner, the […] herbicidal action of the compounds according to the invention, the herbicidal activity being stated in percent. [table] In the experiments that follow, herbicidal action of numerous inventive compounds and the known compounds that are structurally closest from D1 (WO 2012/028579 A1) and D2 (WO 2018/202535 A1) were compared under the above-specified conditions by the pre-emergence and post-emergence method. The example numbers given in the tables relate to the compounds disclosed in the respective documents. In addition to the compounds disclosed in D1 and D2, the following compounds V-1 to V-14 that are encompassed by D1 or D2 but are not compounds specified therein were used in the comparative experiments: • V-1: 2-(methylsulfanyl)-3-(methylsulfinyl)-N-(1-methyl-1H-tetrazol-5-yl)-4-(trifluoromethyl)benzamide • V-2: 2-(methylsulfanyl)-3-(methylsulfonyl)-N-(1-methyl-1H-tetrazol-5-yl)-4-(trifluoromethyl)benzamide • V-3: 2,3-bis(ethylsulfanyl)-N-(1-methyl-1H-tetrazol-5-yl)-4-(trifluoromethyl)benzamide • V-4: 2-chloro-3-(ethylsulfanyl)-N-(1-methyl-1H-tetrazol-5-yl)-4-(trifluoromethyl)benzamide • V-5: 2-chloro-4-iodo-3-(methylsulfanyl)-N-(1-methyl-1H-tetrazol-5-yl)benzamide • V-6: 2-chloro-4-iodo-3-(methylsulfinyl)-N-(1-methyl-1H-tetrazol-5-yl)benzamide • V-7: 2-chloro-4-iodo-3-(methylsulfonyl)-N-(1-methyl-1H-tetrazol-5-yl)benzamide • V-8: 2-bromo-3-(methylsulfanyl)-N-(1-methyl-1H-tetrazol-5-yl)-4-(trifluoromethyl)benzamide • V-9: 2-bromo-3-(methylsulfinyl)-N-(1-methyl-1H-tetrazol-5-yl)-4-(trifluoromethyl)benzamide • V-10: 2-bromo-3-(methylsulfonyl)-N-(1-methyl-1H-tetrazol-5-yl)-4-(trifluoromethyl)benzamide • V-11: 2-bromo-3-(ethylsulfanyl)-N-(1-methyl-1H-tetrazol-5-yl)-4-(trifluoromethyl)benzamide • V-12: 2-bromo-3-(ethylsulfinyl)-N-(1-methyl-1H-tetrazol-5-yl)-4-(trifluoromethyl)benzamide • V-13: 2-bromo-3-(ethylsulfonyl)-N-(1-methyl-1-1H-tetrazol-5-yl)-4-(trifluoromethyl)benzamide • V-14: 2-cyclopropyl-3-(ethylsulfanyl)-N-(1-methyl-1H-tetrazol-5-yl)-4-(trifluoromethyl)benzamide Herbicidal Pre-Emergence Action: […]

Veronica persica [5] = assay: Pre-emergence herbicidal action, VERPE; set-up: key to Herbicidal action against VERPE: % activity: 100 = plants have died, 0 = like control plants; conditions: for herbicidal action VERPE: dosage 320 g/ha
Description: as §2

Viola tricolor [6] = assay: Post-emergence herbicidal action, VIOTR; set-up: key: % herbicidal action vs untreated; 100 = plants died, 0 = like control; conditions: post-emergence
Protocol: as §1

Veronica persica [7] = assay: Post-emergence herbicidal action, VERPE; set-up: key: % herbicidal action vs untreated; 100 = plants died, 0 = like control; conditions: post-emergence
Protocol: as §1

Stellaria media [8] = assay: Pre-emergence herbicidal action, STEME; set-up: key to Herbicidal action against STEME: % activity: 100 = plants have died, 0 = like control plants; conditions: for herbicidal action STEME: dosage 320 g/ha
Description: as §2

Matricaria inodora [9] = assay: Pre-emergence herbicidal action, MATIN; set-up: key to Herbicidal action against MATIN: % activity: 100 = plants have died, 0 = like control plants; conditions: for herbicidal action MATIN: dosage 320 g/ha
Description: as §2

Setaria viridis = assay: Post-emergence herbicidal action, SETVI; set-up: key: % herbicidal action vs untreated; 100 = plants died, 0 = like control; conditions: post-emergence
Protocol: as §1

Matricaria inodora [10] = assay: Post-emergence herbicidal action, MATIN; set-up: key: % herbicidal action vs untreated; 100 = plants died, 0 = like control; conditions: post-emergence, dosage 80 g/ha
Protocol: as §1

Pharbitis purpurea = assay: Post-emergence herbicidal action, PHBPU; conditions: post-emergence, dosage 80 g/ha
Protocol: as §1

Viola tricolor [11] = assay: Pre-emergence herbicidal action, VIOTR; set-up: key to Herbicidal action against VIOTR: % activity: 100 = plants have died, 0 = like control plants; conditions: for herbicidal action VIOTR: dosage 320 g/ha
Description: as §2

Abutilon theophrasti [12] = assay: Pre-emergence herbicidal action, ABUTH; conditions: dosage 320 g/ha
Description: as §2

Echinochloa crus-galli [13] = assay: Pre-emergence herbicidal action, ECHCG; conditions: for herbicidal action ECHCG: dosage 320 g/ha
Description: as §2

Abutilon theophrasti [14] = assay: Post-emergence herbicidal action, ABUTH; set-up: key: % herbicidal action vs untreated; 100 = plants died, 0 = like control; conditions: post-emergence
Protocol: as §1

[15] = comparative experiment, 5 g of a.i./ha
[16] = comparative experiment, 20 g of a.i./ha

Row | Compound | Herbicidal action against ECHCG (Echinochloa crus-galli [1]; dosage 80 g/ha) | Herbicidal action against STEME (Stellaria media [2]; dosage 80 g/ha) | Herbicidal action against AMARE (Amaranthus retroflexus [3]; dosage 80 g/ha) | herbicidal action AMARE (Amaranthus retroflexus [4]) | herbicidal action VERPE (Veronica persica [5]) | Herbicidal action against VIOTR (Viola tricolor [6]; dosage 80 g/ha) | Herbicidal action against VERPE (Veronica persica [7]; dosage 80 g/ha) | herbicidal action STEME (Stellaria media [8]) | herbicidal action MATIN (Matricaria inodora [9]) | Herbicidal action against SETVI (Setaria viridis; dosage 80 g/ha) | Herbicidal action against MATIN (Matricaria inodora [10]) | Herbicidal action against PHBPU (Pharbitis purpurea) | herbicidal action VIOTR (Viola tricolor [11]) | herbicidal action ABUTH (Abutilon theophrasti [12]) | herbicidal action ECHCG (Echinochloa crus-galli [13]) | Herbicidal action against ABUTH (Abutilon theophrasti [14]; dosage 80 g/ha) | other results
1 | Cc1c(C(=O)Nc2nnnn2C)ccc(S(C)(=O)=O)c1C[S+](C)[O-] (centres unmarked) [Example 1-38] | 90 | 100 | 100 | 80% | 100% | 80 | 90 | 90% | 90% |  |  |  |  |  |  |  | 
2 | COc1c(C(=O)Nc2nnnn2C)ccc(C(F)(F)F)c1CS(C)(=O)=O [Example 1-136] | 90 | 100 | 90 | 100% | 100% | 90 | 100 | 80% | 90% | 90 | 90 | 90 | 80% | 100% | 100% |  | 
3 | CSCc1c(S(C)(=O)=O)ccc(C(=O)Nc2nnnn2C)c1Cl [Example 1-278] | 100 | 90 | 100 | 100% | 90% | 100 |  | 80% |  | 100 |  | 90 |  | 90% | 90% | 90 | 
4 | CCCn1nnnc1NC(=O)c1ccc(C)c(CSC)c1Cl [Example 3-287] | 90 | 100 | 100 | 100% | 90% | 90 |  | 90% | 100% |  | 100 | 80 | 80% |  | 100% | 90 | 
5 | CCSc1c(C(=O)Nc2nnnn2C)ccc(C(F)(F)F)c1SCC [Example V-3, 2,3-bis(ethylsulfanyl)-N-(1-methyl-1H-tetrazol-5-yl)-4-(trifluoromethyl)benzamide, reference compound] |  |  |  |  |  |  |  |  |  |  |  |  |  |  |  |  | Herbicidal action against ECHCG (Echinochloa crus-galli [1]; [15]): 0; Herbicidal action against SETVI (Setaria viridis; [15]): 0; Herbicidal action against STEME (Stellaria media [2]; [15]): 0; Herbicidal action against AMARE (Amaranthus retroflexus [3]; [15]): 0; Herbicidal action against AMARE (Amaranthus retroflexus [4]; [16]): 0; Herbicidal action against VERPE (Veronica persica [5]; [16]): 0; Herbicidal action against VIOTR (Viola tricolor [6]; [15]): 0; Herbicidal action against VERPE (Veronica persica [7]; [15]): 0; Herbicidal action against STEME (Stellaria media [8]; [16]): 0; Herbicidal action against VIOTR (Viola tricolor [11]; [16]): 0; Herbicidal action against ABUTH (Abutilon theophrasti [14]; [15]): 0; Herbicidal action against MATIN (Matricaria inodora [9]; [16]): 0; pest or weed control at 20 g/ha (Echinochloa crus-galli [13]; Echinochloa crus-galli, 504 h, comparative experiment, 20 g of a.i./ha, read-out: Herbicidal action against ECHCG): 0%

Reference: US12492173B2, “Herbicidal substituted N-tetrazolyl aryl carboxamides” (Bayer Aktiengesellschaft, priority 2019, dated 2025)
